Here are results for 69 sequences from patent US20030068615A1, “Polypeptides that bind HIV gp120 and related nucleic acids, antibodies, compositions, and methods of use” (priority 1999, published 2003).

In the assay the target is HIV-1LAI envelope gp120 (Human immunodeficiency virus type 1 group M subtype B, UniProt P03377). In kind it is binding. To be noted: for Binding Results For Window Length (counts bound-background), 9: 9-mer starting at the first residue of the printed sequence; for Binding Results For Window Length (counts bound-background), 12: 12-mer starting at the first residue of the printed sequence; for Binding Results For Window Length (counts bound-background), 15: 15-mer starting at the first residue of the printed sequence; for Counts per 20′ Average-background: CCR5 18-mer scan; for number of radioactive decays (counts) counted: human CD4 21-mer scan, empty control 2075; for Relative % of Control: mean of two syntheses and binding experiments ± average deviation, wild-type = 100%.

The mark [1] stands for this setting: STRL33 amino terminus, background subtracted.
The mark [2] stands for this setting: Panel E, 9-mers and 12-mers of CD4, empty control 571.
Setting [3] is: radiolabeled HIV-1LAI gp120, background subtracted.
Setting [4] is: Panel F, sequential alanine replacements of CD4 polypeptides, duplicate series, empty control 569.
Where [5] appears, read: Panel D, 9-mers and 12-mers of CD4, empty control […].
The mark [6] stands for this setting: Panel B, 15-mers and 18-mers of CD4, empty control 575.
The mark [7] stands for this setting: STRL33 18-mer scan, background subtracted, first of two count columns.
Setting [8] is: STRL33 18-mer scan, background subtracted, second of two count columns.
The mark [9] stands for this setting: Panel C, 15-mers and 18-mers of CD4, empty control 556.
[10] abbreviates: CXCR4 18-mer scan, background subtracted, empty control 0.
[11] abbreviates: CXCR4 18-mer scan, empty control 412.

Where “and” joins values, the source holds several entries; their conditions need not be identical. Identical values can stand only once. Like-named read-outs stand apart in the source and are kept apart here.

As to FNDSSQEEEQAFLQFSKV, under setting [1], the “Binding Results For Window Length (counts bound-background), 9” value was 246 counts; the “Binding Results For Window Length (counts bound-background), 12” value is on record as 470 counts; the “Binding Results For Window Length (counts bound-background), 15” value is given as 4089 counts. Besides, where the note is “STRL33 amino terminus, 18-mer starting at the first residue of the printed sequence, background subtracted”, the “Binding Results For Window Length (counts bound-background), 18” value is reported as 4678 counts.
Consider NQKKVEFKI, for which the “COUNTS of radiolabeled gp120 retained” value under setting [2] was 597 counts.
Turning to AISDLFFLLTVPFWAHYA [CCR5 segment 73-90], the “Counts per 20′ Average-background” value under setting [3] is reported as 41 counts per 20′.
As to EEVQLLVFGLTANSA, the “COUNTS of radiolabeled gp120 retained” value under setting [4] is 22206 counts and 18227 counts.
With AFTVEKLTG, under setting [2], the “COUNTS of radiolabeled gp120 retained” value is 517 counts.
Turning to SDTYICEVE, under setting [5], the “COUNTS of radiolabeled gp120 retained” value was 819 counts.
Turning to IFTIMIVYFLFWAPYNIV [CCR5 segment 237-], the “Counts per 20′ Average-background” value under setting [3] is 121 counts per 20′.
Take NLKIEDSDTYICEVE: the “COUNTS of radiolabeled gp120 retained” value under setting [6] worked out at 1160 counts.
As for KIEDSDTYI, under setting [5], the “COUNTS of radiolabeled gp120 retained” value is 603 counts.
NDSSQEEHQAFLQFS: under setting [1], the “Binding Results For Window Length (counts bound-background), 9” value is recorded as 180 counts; the “Binding Results For Window Length (counts bound-background), 12” value was determined as 497 counts; the “Binding Results For Window Length (counts bound-background), 15” value was 6160 counts.
In the case of VLQNQKKVE, under setting [2], the “COUNTS of radiolabeled gp120 retained” value was 556 counts.
Turning to LTANSDTHLLQGQSL, the “COUNTS of radiolabeled gp120 retained” value under setting [6] was determined as 634 counts.
For “YAMTSFHYTIMVTEAIAY [STRL33 segment 261-278]”, the “radioactive counts recorded in twenty minutes” value (from here on “radioactive counts recorded”) turned out to be 2688.5 counts under setting [7] and 2359.5 counts under setting [8].
On to THLLQGASLTLTLES, for which the “COUNTS of radiolabeled gp120 retained” value under setting [4] came out at 1933 counts.
With KEEVQLLVF, under setting [5], the “COUNTS of radiolabeled gp120 retained” value is reported as 1273 counts.
With LLVFGLTANSDTHLL, the “COUNTS of radiolabeled gp120 retained” value under setting [6] amounted to 599 counts.
LAFQKASSIVYKKEG: the “COUNTS of radiolabeled gp120 retained” value under setting [9] was found to be 593 counts.
On to VEDQKEEVQLLVFGLTAN, for which, under setting [6], the “COUNTS of radiolabeled gp120 retained” value was 3913 counts.
On to “WGPTSPKLMLSLKLENKEAKV [human CD4 331-351]”, for which the “number of radioactive decays (counts) counted” value (shortened to “number of radioactive decays”) is listed as 2414 counts.
On to DSDTYICEVEDQKEE, for which, under setting [6], the “COUNTS of radiolabeled gp120 retained” value was determined as 973 counts.
On to KKEGEQVEFSFP, for which, under setting [2], the “COUNTS of radiolabeled gp120 retained” value came to 598 counts.
For “LKNKEVSVKPVTQDPKLQMGK [human CD4 256-276]”, the “number of radioactive decays” value came to 2288 counts.
Still for that read-out and setting: next, “QALPQYAGSGNLTLALEAKTG [human CD4 286-306]”: 2364 counts.
Regarding SDTHLLQGQSLTLTLESP, the “COUNTS of radiolabeled gp120 retained” value under setting [6] is listed as 1260 counts.
For the sequence EEVQLLVFGLTTNSD, the “COUNTS of radiolabeled gp120 retained” value under setting [4] is 20021 counts and 20100 counts.
Consider DQGNFPLIIKNLKIE, for which, under setting [6], the “COUNTS of radiolabeled gp120 retained” value was found to be 635 counts.
“MDYQVSSPIADINYYTSE [CCR5 (1-18) variant Y10A]”: where the note is “CCR5 (1-18) alanine variants”, the “Relative % of Control” value is reported as 19 ± 6%. Also, the “percentage of binding of mutant polypeptide compared to wild-type polypeptide, gp120” value (CCR5 alanine mutant peptide, radiolabeled HIV-1LAI gp120) stood at 19.2%.
Regarding TVILILAFFACWLPYYIG, the “radioactive counts recorded” value under setting [10] is listed as 323 counts and the “radioactive counts recorded” value under setting [11] was 735 counts.
As to MEGISIATSDNYTEEMGS, the “Relative % of Control” value (CXCR4 (1-18) alanine variants) is 7 ± 0.4%.
Take SDTHLLQGQ: the “COUNTS of radiolabeled gp120 retained” value under setting [5] is 526 counts.
In the case of VISLLVSLPQIIYGNVFN, the “radioactive counts recorded” value under setting [7] is on record as −60.5 counts and the “radioactive counts recorded” value under setting [8] is recorded as −127.5 counts.
Regarding “VCYSVIIKTLLHAGGFQK [STRL33 segment 209-226]”, the “radioactive counts recorded” value is, setting by setting: under setting [7], 1334.5 counts; under setting [8], 1143.5 counts.
As to PLAFTVEKLTGSGELWWQAER, the “COUNTS of radiolabeled gp120 retained” value (Panel A, 21-mers of CD4, empty control 515 and 617) stood at 2647 counts.
QNQKKVEFKIDI: the “COUNTS of radiolabeled gp120 retained” value under setting [2] is reported as 559 counts.
As to DTYICEVEDQKEEVQLLV, the “COUNTS of radiolabeled gp120 retained” value under setting [6] was found to be 1648 counts.
Regarding SFPLAFTVEKLT, under setting [2], the “COUNTS of radiolabeled gp120 retained” value is reported as 528 counts.
Take “HVIYTVNLYSSVLILAFI [CXCR4 segment 113-130]”: the “radioactive counts recorded” value stood at 118 counts under setting [10] and 530 counts under setting [11].
As for KIEDSDTYICEV, the “COUNTS of radiolabeled gp120 retained” value under setting [5] is 601 counts.
On to THLLQGQSLTLTLAS, for which the “COUNTS of radiolabeled gp120 retained” value under setting [4] was 2596 counts and 2193 counts.
Take SSIVYKKEGEQVEFSFPL: under setting [9], the “COUNTS of radiolabeled gp120 retained” value stood at 756 counts.
As for QAFLQFSKV, under setting [1], the “Binding Results For Window Length (counts bound-background), 9” value is given as 2600 counts.
CEVEDQKEEVQLLVF: under setting [6], the “COUNTS of radiolabeled gp120 retained” value turned out to be 1729 counts.
Regarding DRYLAIVHATNSQRPRKL, the “radioactive counts recorded” value by setting is: under setting [10], 168 counts; under setting [11], 580 counts.
In the case of LVFGLTANS, under setting [5], the “COUNTS of radiolabeled gp120 retained” value is reported as 522 counts.
As to FGLTANSDTHLLQGQ, the “COUNTS of radiolabeled gp120 retained” value under setting [6] is listed as 625 counts.
Consider ASSIVYKKE, for which the “COUNTS of radiolabeled gp120 retained” value under setting [2] worked out at 600 counts.
Turning to DIVVLAFQKASSIVY, the “COUNTS of radiolabeled gp120 retained” value under setting [9] turned out to be 776 counts.
Turning to “KRLLSEKKTCQCPERFQKTCS [human CD4 436-456]”, the “number of radioactive decays” value came to 1674 counts.
Regarding TCTVLQNQKKVEFKIDIV, the “COUNTS of radiolabeled gp120 retained” value under setting [9] was determined as 571 counts.
On to SSIVYKKEGEQVEFS, for which the “COUNTS of radiolabeled gp120 retained” value under setting [9] turned out to be 558 counts.
DRYLAVVHAVFALKARTV: the “Counts per 20′ Average-background” value under setting [3] is reported as 62 counts per 20′.
As for KVEFKIDIVVLAFQKASS, under setting [9], the “COUNTS of radiolabeled gp120 retained” value turned out to be 1011 counts.
On the same count and under the same terms, next, VYKKEGEQVEFSFPLAFT: 4307 counts.
Regarding PMALIVLGGVAGLLLFIGLGI, the “number of radioactive decays” value was 3067 counts.
KIVILGLVLPLLVMVICY: the “Counts per 20′ Average-background” value under setting [3] is 65 counts per 20′.
Regarding GYHDEAISTVVLATQMTL, the “radioactive counts recorded” value reads like this: under setting [7], 754.5 counts; under setting [8], 1181.5 counts.
For the sequence IEDSDTYICEVEDQK, the “COUNTS of radiolabeled gp120 retained” value under setting [6] came to 1143 counts.
Turning to EQVEFSFPLAFTVEK, the “COUNTS of radiolabeled gp120 retained” value under setting [9] stood at 4135 counts.
In the case of MNRGVPFRRLLLVLQLALLPA [human CD4 1-21], the “number of radioactive decays” value was 3587 counts.
For YAAAQWDFGNTMCQLLTG [CCR5 segment 89-], the “Counts per 20′ Average-background” value under setting [3] was determined as 494 counts per 20′.
In the case of “ENTVHKWISITEALAFFH [CXCR4 segment 277-294]”, the “radioactive counts recorded” value runs as follows: under setting [10], 315 counts; under setting [11], 727 counts.
KKVEFKIDIVVL: under setting [2], the “COUNTS of radiolabeled gp120 retained” value was determined as 597 counts.
In the case of LKSMTDIYLLNLAISDLF [CCR5 segment 61-78], under setting [3], the “Counts per 20′ Average-background” value was 210 counts per 20′.
Consider NFPLIIKNLKIE, for which the “COUNTS of radiolabeled gp120 retained” value under setting [5] was determined as 647 counts.
Turning to EFSFPLAFTVEKLTG, under setting [9], the “COUNTS of radiolabeled gp120 retained” value amounted to 920 counts.
Take FGLTANSDT: under setting [5], the “COUNTS of radiolabeled gp120 retained” value worked out at 563 counts.
Take FKIDIVVLA: the “COUNTS of radiolabeled gp120 retained” value under setting [2] stood at 568 counts.
For the sequence EEVQLLVFGLTAASD, the “COUNTS of radiolabeled gp120 retained” value under setting [4] is 19200 counts and 19390 counts.
Take ICEVEDQKEEVQLLV: under setting [6], the “COUNTS of radiolabeled gp120 retained” value amounted to 1084 counts.
